Experimental data published in patent US20050209278A1, “Piperidinyl- and piperazinyl-sulfonylmethyl hydroxamic acids and their use as protease inhibitors” (priority 2002, published 2005).

target: T1, MMP-2 (Homo sapiens, UniProt P08253); assay: In vitro MMP inhibition, IC50 determination (fluorogenic substrate I); format: biochemical; details: value in parenthesis; read-out: MMP-2 (IC-50)
T1 construct: made in house; host or cells: MMP-2-transfected p2AHT2 cells
T1 sequence (P08253 110-660): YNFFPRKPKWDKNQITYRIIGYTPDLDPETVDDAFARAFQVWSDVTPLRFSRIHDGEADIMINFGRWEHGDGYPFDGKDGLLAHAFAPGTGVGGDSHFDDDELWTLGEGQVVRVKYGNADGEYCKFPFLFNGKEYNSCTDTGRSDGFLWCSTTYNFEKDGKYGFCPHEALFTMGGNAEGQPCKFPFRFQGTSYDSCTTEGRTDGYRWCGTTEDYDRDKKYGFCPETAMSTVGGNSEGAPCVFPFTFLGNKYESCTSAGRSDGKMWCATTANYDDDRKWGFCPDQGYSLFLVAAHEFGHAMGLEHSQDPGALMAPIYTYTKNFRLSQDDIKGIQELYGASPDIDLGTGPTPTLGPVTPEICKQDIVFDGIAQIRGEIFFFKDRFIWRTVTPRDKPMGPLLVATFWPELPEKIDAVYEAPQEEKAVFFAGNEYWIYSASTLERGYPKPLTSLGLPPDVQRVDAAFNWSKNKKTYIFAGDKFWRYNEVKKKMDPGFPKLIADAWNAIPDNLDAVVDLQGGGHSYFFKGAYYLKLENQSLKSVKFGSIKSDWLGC
Method: Several hydroxamic acids and salts thereof were analyzed in in vitro assays to determine their ability to inhibit the MMP cleavage of peptide substrates. […] and IC50 constants were calculated from the assayed hydroxamic acid-MMP interactions.
Human recombinant MMP-1, MMP-2, MMP-9, MMP-13, and MMP-14 were used in this assay. All enzymes were prepared in Assignee's laboratories following usual laboratory procedures. Protocols for the preparation and use of these enzymes are available in the scientific literature. See, e.g., Enzyme Nomenclature (Academic Press, San Diego, Calif., 1992) (and the citations therein). See also, Freije et al., “Molecular cloning and expression of collagenase-3, a novel human matrix metalloproteinase produced by breast carcinomas,” J Biol. Chem., 269(24), 16766-16773 (1994).
The MMP-2 proenzyme was purified by gelatin Sepharose chromatography from MMP-2-transfected p2AHT2 cells provided by Dr. Gregory Goldberg of Washington University (St. Louis, Mo.).
All MMPs were activated using 4-aminophenylmercuric acetate (“APMA”, Sigma Chemical, St. Louis, Mo.) or trypsin. MMP-9 also was activated using human recombinant MMP-3 (purified in Assignee's laboratory following standard cloning and purification techniques).
Two fluorogenic, methoxycoumarin-containing polypeptide substrates were used in the MMP inhibition assays: [drawing 427] Here, “Dpa” is 3-(2,4-dinitrophenyl)-L-2,3-diaminopropionyl group, and “MCA” is 7-methoxycoumarin-4-yl acetyl. Substrate (I) was purchased from Baychem (Redwood City, Calif.), and substrate II was prepared Assignee's laboratory. Substrate I was used in the IC50 determination assays, while substrate II was used in the Ki determination assays. In the absence of MMP inhibitory activity, either substrate is cleaved at the Gly-Leu peptide bond. This cleavage separates the highly fluorogenic peptide from the 2,4-dinitrophenyl quencher, thus resulting in increase of fluorescent intensity.
The stock solutions of the assayed hydroxamic acids (or salts thereof) were prepared in 1% dimethyl sulfoxide (DMSO). These stock solutions were diluted in Buffer A (100 mM Tris-HCl, 100 mM NaCl, 10 mM CaCl2, 0.05% polyoxyethylene 23 lauryl ether, pH 7.5) to obtain solutions with different hydroxamic acid concentrations, i.e., assay solutions with different concentrations of the assayed MMP inhibitory compound. The experiment controls contained the same amount of Buffer A/DMSO as the assayed sample, but contained no hydroxamic acid (or salt thereof).
The assays from which the IC50 determinations were made were performed as follows. The MMPs were activated with either trypsin or APMA (4-aminophenylmercuric acetate, Sigma Chemical, St. Louis, Mo.). The assayed hydroxamic acid samples were incubated in Microfluor™ White Plates (Dynatech, Chantilly, Va.) and analyzed on a Perkin Elmer L550 plate reader (Norwalk, Conn.). The excitation wavelength was 328 nm, and the emission wavelength—415 nm. All samples (assayed hydroxamic acids and controls) were incubated in separate plates at room temperature in the presence of 4 μM of MMP substrate (I). As stated in the previous paragraph, samples containing varying concentrations of the same assayed hydroxamic acid were prepared. Inhibition was measured as a reduction in fluorescent intensity as a function of MMP inhibitor concentration.
The above protocols were used to determine IC50 constants and Ki values for the compounds in Examples 1-27 above. All values in Table 2 are given in nM units. The IC50 measurements are in parenthesis.

Structure (SMILES)	IC50 [nM]
CCC(C)Cc1ccc(N2CCN(S(=O)(=O)C3(C(=O)NO)CCN(CCOC)CC3)CC2)cc1 (stereo not drawn) [Example 190]	1.6
COCCN1CCC(C(=O)NO)(S(=O)(=O)N2CCN(c3ccccc3)CC2)CC1 [Example 195]	2.4
CCCCCc1ccc(N2CCN(S(=O)(=O)C3(C(=O)NO)CCOCC3)CC2)nn1 [Example 197]	19.1
COCCN1CCC(C(=O)NO)(S(=O)(=O)N2CCN(c3ccc(CC(C)C)cc3)CC2)CC1 [Example 192]	1.3
O=C(NO)C1(S(=O)(=O)N2CCN(c3ccc(Cl)nn3)CC2)CCOCC1 [Example 198]	18.2
COCCN1CCC(C(=O)NO)(S(=O)(=O)N2CCN(c3nc4ccccc4o3)CC2)CC1 [Example 196]	30.5
CCCC(C)Cc1ccc(N2CCN(S(=O)(=O)C3(C(=O)NO)CCN(CCOC)CC3)CC2)cc1 (stereo not drawn) [Example 189]	1.9

Stronger by IC50, values ahead:

IC50 [nM]	Structure (SMILES)
< 0.1	O=C(NO)C1(S(=O)(=O)N2CCN(c3ccc(OC(F)(F)F)cc3)CC2)CCN(C2CC2)CC1 [Example 203]
< 0.1	CCCCCCc1ccc(N2CCN(S(=O)(=O)C3(C(=O)NO)CCN(CCOC)CC3)CC2)cc1 [Example 199]
0.2	CCc1ccc(N2CCN(S(=O)(=O)C3(C(=O)NO)CCN(CCOC)CC3)CC2)cc1 [Example 193]
< 0.1	CCCc1ccc(N2CCN(S(=O)(=O)C3(C(=O)NO)CCN(CCOC)CC3)CC2)cc1 [Example 200]
< 0.1	COCCN1CCC(C(=O)NO)(S(=O)(=O)N2CCN(c3ccc(CCCCC(C)C)cc3)CC2)CC1 [Example 191]
< 0.1	COCCN1CCC(C(=O)NO)(S(=O)(=O)N2CCN(c3ccc(Br)cc3)CC2)CC1 [Example 201]
0.5	COCCN1CCC(C(=O)NO)(S(=O)(=O)N2CCN(c3ccc(C)cc3)CC2)CC1 [Example 194]
< 0.1	COCCN1CCC(C(=O)NO)(S(=O)(=O)N2CCN(c3ccc(OC(F)(F)F)cc3)CC2)CC1 [Example 202]
